Measured values reported in patent publication US7091242B2, “Beta-amino acid derivatives as integrin receptor antagonists” (Bayer Aktiengesellschaft, priority 2000, dated 2006).

Experiments:
[1] = tested on: Ramos cells / immobilized VCAM-1 (extracellular domains 1–3); assay: Adhesion of Ramos cells to immobilized VCAM-1 (domains 1–3); type: cell-based; details: Homo sapiens, 1 h
From the text: In Vitro Assay: Adhesion of Ramos Cells to Immobilized VCAM-1 (Domains 1–3) Preparation of VCAM-1 (extracellular domains 1–3)
Complementary DNA (cDNA) encoding 7-domain form of VCAM-1 (GenBank accession #M60335) was obtained using Rapid-ScreenTM cDNA library panels (OriGene Technologies, Inc) at Takara Gene Analysis Center (Shiga, Japan). The primers used were 5′-CCAAGGCAGAGTACGCAAAC-3′ (sense) and 5′-TGGCAGGTATTATTAAGGAG-3′ (antisense). PCR amplification of the 3-domain VCAM-1 cDNA was perform using Pfu DNA polymerase (Stratagene) with the following sets of primers: (U-VCAMd1–3) 5′-CCATATGGTACCTGATCAATTTAAAATCGAGACCACCCCAGAA-3′; (L-VCAMd1–3) 5′-CCATATAGCAATCCTAGGTCCAGGGGAGATCTCAACAGTAAA-3′. PCR cycle was 94° C. for 45 sec, 55° C. for 45 sec, 72° C. for 2 min, repeating 15 cycles. After the purification of the PCR product, the fragment was digested with KpnI-AvrII. The digested fragment was ligated into pBluescript IISK(-) (Strategene), which was linearized by digesting with KpnI-XhoI. The ligation was followed by transformation to a Dam/Dcm methylase-free E. coli strain SCS110 (Strategene) to create the donor plasmid pHH7. To direct VCAM-1 molecule into the insect cell secretory pathway, the VCAM-1 coding sequence was fused to signal peptide sequence of honeybee melittin. The resulting melittin-VCAM fusion was placed in correct orientation to the baculovirus polyhedrin promoter. Baculovirus transfer vector containing first 3-domain form VCAM-1 (pH10) was constructed by ligation of 0.9 kb fragment from AvrIIenow/BclI digests of pH7 into SalI/Klenow/BamHI digests of pMelBacB (Invitrogen). Recombinant baculovirus was generated by using Bac-N-Blue™ Transfection kit (Invitrogen) according to the manufacture's instruction. The recombinant virus was amplified by infection to High-Five™ insect cells for 5–6 days, and virus titer was determined by plaque assay.
High-Five™ insect cells were pelleted in a 225 ml conical tube by centrifugation at 1000 rpm for 5 min. After discarding the supernatant, the pellet was resuspended in 1.5×10^9 pfu (MOI=5) of high-titer virus solution, followed by incubation for 1.5 hours at room temperature. The cells were pelleted again and washed once in fresh Express Five™ serum free medium. The cells were pelleted again and finally, resuspended in 200 ml of fresh Express Five™ medium, transferred to a 1,000 ml shaker flask, and incubated in a shaker at 27° C., 130 rpm, for 48 hours before the culture supernatant was collected. […] Protein concentration was determined by using Coomassie protein assay reagent (Pierce) according to the manufacture's instruction. […]
Preparation of Fluorescence Labeled Ramos Cells: […]

| melting point [°C] | IC50 [1] [µM] | Structure (SMILES) |
| --- | --- | --- |
| 166 | < 1 | COc1ccc(C(CC(=O)Nc2ccc(NC(=O)Nc3ccccc3C)cc2)NC(=O)c2ccc(C(=O)O)cc2)cc1OC (stereo not shown) [Example 1, 4-{[(1-(3,4-Dimethoxyphenyl)-3-{[4-({[(2-methylphenyl)amino]carbonyl}amino)phenyl]amino}-3-oxopropyl)amino]carbonyl}benzoic acid] |
|  | > 10 | Cc1ccccc1NC(=O)Nc1ccc(CNC(=O)C2(CNC(=O)c3ccc(C(=O)O)cc3)CCCCC2)cc1 [Example 2, 4-[({[1-({[4-({[(2-methylphenyl)amino]carbonyl}-amino)benzyl]amino}carbonyl)cyclohexyl]methyl}-amino)carbonyl]benzoicacid] |
| 214 | > 10 | COc1ccc(C(CC(=O)NCc2ccc(NC(=O)Nc3ccccc3C)cc2)NC(=O)c2ccc(C(=O)O)cc2)cc1OC (stereo not shown) [Example 3, 4-{[(1-(3,4-dimethoxy-phenyl)-3-{[4-({[(2-methyl-phenyl)amino]carbonyl}amino)benzyl]amino}-3-oxopropyl)amino]carbonyl}benzoic acid] |
| 275 to 280 | < 1 | COc1cccc(C(CC(=O)Nc2ccc(NC(=O)Nc3ccccc3C)cc2)NC(=O)c2ccc(C(=O)O)cc2)c1 (stereo not shown) [Example 4, 4-{[(1-(3-methoxy-phenyl)-3-{[4-({[(2-methylphenyl)-amino]carbonyl}amino)phenyl]amino}-3-oxopropyl)amino]carbonyl}benzoic acid] |
| 210 to 215 |  | COc1ccc(C(CC(=O)Nc2ccc(NC(=O)Nc3ccccc3C)cc2)NC(=O)c2ccc(C(=O)OC(C)(C)C)cc2)cc1OC (stereo not shown) [Example VII, tert-Butyl-4-{[(1-(3,4-dimethoxyphenyl)-3-{[4-({[(2-methylphenyl)-amino]carbonyl}amino)phenyl]amino}-3-oxopropyl)amino]carbonyl}benzoate] |
| 223 to 226 |  | COc1ccc(C(CC(=O)NCc2ccc(NC(=O)Nc3ccccc3C)cc2)NC(=O)c2ccc(C(=O)OC(C)(C)C)cc2)cc1OC (stereo not shown) [IX, tert-Butyl-4-{[(1-(3,4-dimethoxyphenyl)-3-{[4-({[(2-methylphenyl)amino]carbonyl}amino)benzyl]amino}-3-oxopropyl)amino]carbonyl}-benzoate] |
| 187 to 189 |  | Cc1ccccc1NC(=O)Nc1ccc(CNC(=O)C2(CNC(=O)c3ccc(C(=O)OC(C)(C)C)cc3)CCCCC2)cc1 [VIII, tert-Butyl 4-[({[1-({[4-({[(2-methylphenyl)amino]carbonyl}amino)benzyl]amino}carbonyl)cyclohexyl]methyl}-amino)carbonyl]benzoate] |
